For 39 molecules, IC50 results are on record in patent US7425557B2, “Inhibitors of glycogen synthase kinase 3” (Novartis Vaccines and Diagnostics, Inc., priority 1998, dated 2008).

A word on the IC50: it is the concentration needed to halve the response being measured.

This assay deals with human GSK3β (Homo sapiens, UniProt P49841). As to the kind of experiment: Screening for GSK3 inhibitory activity using a cell-free assay. It counts as biochemical. Conditions: read-out: IC50 with respect to GSK3. As for the experimental part: This amount represents the amount of radiolabeled phosphate incorporated into the peptide substrate.
The captured radiolabeled peptide substrate can be quantitated in a scintillation counter using known methods. […] If an inhibitor is present during the reaction, GSK3 activity will be reduced, and a smaller quantity of radiolabeled phosphate will thus be incorporated into the peptide substrate.
Pyrimidine and pyridine compounds of the present invention were dissolved in DMSO, then tested for inhibition of human GSK3β (the nucleotide sequence for human GSK3β appears in GenBank under Accession No. L33801).
While the reaction was proceeding, streptavidin-coated Labsystems “Combiplate 8” capture plates (Labsystems, Helsinki, Finland) were blocked by incubating them with 300 μl/well of PBS containing 1% bovine serum albumin for at least one hour at room temperature. The blocking solution was then removed by aspiration, and the capture plates were filled with 100 ul/well of stopping reagent (50 μM ATP/20 mM EDTA).
When the three hour enzyme reaction was finished, triplicate 100 μl aliquots of each reaction mix were transferred to three wells containing stopping solution, one well on each of the three capture plates, and the well contents were mixed well. […] Finally, 200 μl of Microscint-20 scintillation fluid was added to each well of the plate. The plates were coated with plate sealers, then left on a shaker for 30 minutes. Each capture plate was counted in a Packard TopCount scintillation counter (Meridian, Conn.) and the results were plotted as a function of compound concentration.

Chain of human GSK3β (P49841 whole entry): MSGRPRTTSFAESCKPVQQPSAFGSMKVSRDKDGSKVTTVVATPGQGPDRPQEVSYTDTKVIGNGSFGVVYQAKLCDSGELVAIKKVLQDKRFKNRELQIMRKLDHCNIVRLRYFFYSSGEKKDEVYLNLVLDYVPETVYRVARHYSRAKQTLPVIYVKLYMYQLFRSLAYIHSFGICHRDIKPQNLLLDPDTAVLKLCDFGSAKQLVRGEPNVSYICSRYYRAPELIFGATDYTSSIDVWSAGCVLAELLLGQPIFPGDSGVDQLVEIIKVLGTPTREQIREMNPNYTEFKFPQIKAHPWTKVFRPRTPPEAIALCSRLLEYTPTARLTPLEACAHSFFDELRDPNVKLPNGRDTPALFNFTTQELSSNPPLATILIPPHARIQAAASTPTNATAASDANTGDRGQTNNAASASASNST

For `NC(=O)c1ccc(-c2ccnc(NCCCOc3ccc(Cl)c(Cl)c3)n2)cc1` [4-(2-{[3-(3,4-dichlorophenoxy)-propyl]amino}pyrimidin-4-yl)benzamide], the IC50 was at most 10 µM.

Turning to `NC(=O)c1ccc(-c2ccnc(NCCCOc3cccc(Br)c3)n2)cc1` [4-(2-{[3-(3-bromophenoxy)propyl]-amino}pyrimidin-4-yl)benzamide], the IC50 is at most 10 µM. With `COc1cccc(OCCCNc2nccc(-c3ccc(C(N)=O)cc3)n2)c1` [4-(2-{[3-(3-methoxyphenoxy)propyl]-amino}pyrimidin-4-yl)benzamide] the figure was at most 10 µM. As for `Cc1cccc(OCCCNc2nccc(-c3ccc(C(N)=O)cc3)n2)c1` [4-(2-{[3-(3-methylphenoxy)propyl]amino}pyrimidin-4-yl)benzamide], the IC50 is at most 10 µM. As to `NC(=O)c1ccc(-c2ccnc(NCCCOc3cccc(-c4ccccc4)c3)n2)cc1` [4-(2-{[3-(3-phenylphenoxy)propyl]-amino}pyrimidin-4-yl)benzamide], the IC50 was at most 10 µM.

As to `NC(=O)c1ccc(-c2ccnc(NCCCc3nc(Cl)c(Cl)[nH]3)n2)cc1` [4-(2-{[3-(4,5-dichloroimidazolyl)propyl]amino}pyrimidin-4-yl)benzamide], the IC50 was at most 1 µM.

On to `Oc1ccc(-c2ccnc(NCCCc3nc(Cl)c(Cl)[nH]3)n2)cc1` [4-(2-{[3-(4,5-dichloroimidazolyl)propyl]amino}pyrimidin-4-yl)phenol], for which the IC50 is at most 1 µM. The same measure for `NC(=O)c1ccc(-c2ccnc(NCCCOc3ccc(Cl)cc3)n2)cc1` [4-(2-{[3-(4-chlorophenoxy)propyl]amino}pyrimidin-4-yl)benzamide]: at most 10 µM. The same measure for `Oc1ccc(-c2ccnc(NCCCOc3ccc(Cl)cc3)n2)cc1` [4-(2-{[3-(4-chlorophenoxy)propyl]amino}pyrimidin-4-yl)phenol]: at most 10 µM; for `COc1ccc(OCCCNc2nccc(-c3ccc(C(N)=O)cc3)n2)cc1` [4-(2-{[3-(4-methoxyphenoxy)propyl]-amino}pyrimidin-4-yl)benzamide]: at most 1 µM; for `NC(=O)c1ccc(-c2ccnc(NCc3ccc(Cl)cc3Cl)n2)cc1` [4-(2-{[(2,4-dichlorophenyl)methyl]-amino}pyrimidin-4-yl)benzamide]: at most 10 µM.

With `COc1cccc(OC)c1CNc1nccc(-c2ccc(C(N)=O)cc2)n1` [4-(2-{[(2,6-dimethoxyphenyl)-methyl]amino}pyrimidin-4-yl)benzamide], the IC50 is at most 10 µM. For `COc1cc(CNc2nccc(-c3ccc(C(N)=O)cc3)n2)cc(OC)c1OC` [4-(2-{[(3,4,5-trimethoxyphenyl)methyl]amino}pyrimidin-4-yl)benzamide], the IC50 was at most 10 µM. With `COc1ccc(CNc2nccc(-c3ccc(C(N)=O)cc3)n2)cc1OC` [4-(2-{[(3,4-dimethoxyphenyl)methyl]amino}-pyrimidin-4-yl)benzamide], the IC50 is at most 10 µM. For `NC(=O)c1ccc(-c2ccnc(NCc3cc(Cl)cc(Cl)c3)n2)cc1` [4-(2-{[(3,5-dichlorophenyl)methyl]amino}pyrimidin-4-yl)benzamide], the IC50 is at most 10 µM. The same measure for `NC(=O)c1ccc(-c2ccnc(NCc3cccc(Br)c3)n2)cc1` [4-(2-{[(3-bromophenyl)methyl]amino}pyrimidin-4-yl)benzamide]: at most 10 µM. With `NC(=O)c1ccc(-c2ccnc(NCc3cccc(Cl)c3)n2)cc1` [4-(2-{[(3-chlorophenyl)methyl]amino}pyrimidin-4-yl)benzamide] the figure was at most 10 µM; with `COc1cccc(CNc2nccc(-c3ccc(C(N)=O)cc3)n2)c1` [4-(2-{[(3-methoxyphenyl)methyl]-amino}pyrimidin-4-yl)benzamide], at most 10 µM; with `Cc1cccc(CNc2nccc(-c3ccc(C(N)=O)cc3)n2)c1` [4-(2-{[(3-methylphenyl)-methyl]amino}pyrimidin-4-yl)benzamide], at most 10 µM. As to `NC(=O)c1ccc(-c2ccnc(NCc3cccc([N+](=O)[O-])c3)n2)cc1` [4-(2-{[(3-nitro-phenyl)methyl]amino}pyrimidin-4-yl)benzamide], the IC50 is at most 10 µM.

As for `CNCc1cccc(-c2cccc(CNc3nccc(-c4ccc(C(N)=O)cc4)n3)c2)c1` [4-(2-{[(3-{3-[(methylamino)methyl]phenyl}-phenyl)methyl]amino}pyrimidin-4-yl)benzamide], the IC50 is at most 10 µM. With `NC(=O)c1ccc(-c2ccnc(NCc3ccc(N)cc3)n2)cc1` [4-(2-{[(4-aminophenyl)methyl]amino}-pyrimidin-4-yl)benzamide] the figure was at most 10 µM; with `NC(=O)c1ccc(-c2ccnc(NCc3ccc(Br)cc3)n2)cc1` [4-(2-{[(4-bromophenyl)methyl]amino}pyrimidin-4-yl)benzamide], at most 10 µM. With `N#Cc1ccc(CNc2nccc(-c3ccc(C(N)=O)cc3)n2)cc1` [4-(2-{[(4-cyanophenyl)methyl]amino}pyrimidin-4-yl)benzamide], the half-maximal inhibitory concentration (IC50) is at most 10 µM. For `COc1ccc(CNc2nccc(-c3ccc(C(N)=O)cc3)n2)cc1` [4-(2-{[(4-methoxyphenyl)methyl]amino}pyrimidin-4-yl)benzamide], the IC50 is at most 10 µM. The same measure for `Cc1cnc(CNc2nccc(-c3ccc(C(N)=O)cc3)n2)cn1` [4-(2-{[(5-methylpyrazin-2-yl)methyl]amino}pyrimidin-4-yl)benzamide]: at most 10 µM; for `N#Cc1cnc(NCCNc2ccc([N+](=O)[O-])cn2)nc1-c1ccc(Cl)c(Cl)c1` [4-(3,4-dichlorophenyl)-2-({2-[(5-nitro(2-pyridyl))amino]ethyl}amino)pyrimidine-5-carbonitrile]: at most 10 µM; for `N#Cc1cccc(-c2nc(NCCNc3ccc([N+](=O)[O-])cn3)nc(-c3ccc([N+](=O)[O-])cc3)c2C(=O)O)c1` [4-(3-cyanophenyl)-2-({2-[(5-nitro(2-pyridyl))amino]ethyl}amino)-6-(4-nitrophenyl)pyrimidine-5-carboxylic acid]: at most 10 µM. In the case of `O=C(O)c1c(-c2ccc([N+](=O)[O-])cc2)nc(NCCNc2ccc([N+](=O)[O-])cn2)nc1-c1cccc(O)c1` [4-(3-hydroxyphenyl)-2-({2-[(5-nitro(2-pyridyl))amino]ethyl}amino)-6-(4-nitrophenyl)pyrimidine-5-carboxylic acid], the IC50 was at most 1 µM. Turning to `O=C(O)c1ccc(-c2nc(NCCNc3ccc([N+](=O)[O-])cn3)nc(-c3ccc([N+](=O)[O-])cc3)c2C(=O)O)cc1` [4-(4-carboxyphenyl)-2-({2-[(5-nitro(2-pyridyl))amino]-ethyl}amino)-6-(4-nitrophenyl)pyrimidine-5-carboxylic acid], the IC50 is at most 1 µM.

Take `N#Cc1ccc(-c2nc(NCCNc3ccc([N+](=O)[O-])cn3)nc(-c3ccc([N+](=O)[O-])cc3)c2C(=O)O)cc1` [4-(4-cyanophenyl)-2-({2-[(5-nitro(2-pyridyl))-amino]ethyl}amino)-6-(4-nitrophenyl)pyrimidine-5-carboxylic acid]: the IC50 is at most 1 µM. With `N#Cc1ccc(-c2nc(NCCNc3ccc([N+](=O)[O-])cn3)ncc2C(N)=O)cc1` [4-(4-cyanophenyl)-2-({2-[(5-nitro(2-pyridyl))-amino]ethyl}amino)pyrimidine-5-carboxamide] the figure was at most 1 µM.

As for `N#Cc1ccc(-c2nc(NCCNc3ccc([N+](=O)[O-])cn3)nc(-c3cccc([N+](=O)[O-])c3)c2C(=O)O)cc1` [4-(4-cyanophenyl)-2-({2-[(5-nitro(2-pyridyl))amino]ethyl}amino)-6-(3-nitrophenyl)pyrimidine-5-carboxylic acid], the IC50 was at most 1 µM. With `N#Cc1ccc(-c2nc(NCCNc3ccc([N+](=O)[O-])cn3)nc(-c3ccccc3)c2C(=O)O)cc1` [4-(4-cyanophenyl)-2-({2-[(5-nitro(2-pyridyl))amino]ethyl}amino)-6-phenylpyrimidine-5-carboxylic acid] the figure was at most 1 µM. `N#Cc1ccc(-c2nc(NCCNc3ccc([N+](=O)[O-])cn3)ncc2C#N)cc1` [4-(4-cyanophenyl)-2-({2-[(5-nitro(2-pyridyl))amino]ethyl}amino)pyrimidine-5-carbonitrile]: the IC50 is at most 1 µM. Take `N#Cc1ccc(-c2nc(NCCNc3ccc([N+](=O)[O-])cn3)ncc2C(=O)O)cc1` [4-(4-cyanophenyl)-2-({2-[(5-nitro(2-pyridyl))amino]ethyl}amino)pyrimidine-5-carboxylic acid]: the half-inhibitory concentration (IC50) was at most 1 µM. For `N#Cc1ccc(-c2nc(NCCNc3ccc([N+](=O)[O-])cn3)nc(-c3ccoc3)c2C(=O)O)cc1` [4-(4-cyanophenyl)-6-(3-furyl)-2-({2-[(5-nitro(2-pyridyl))-amino]ethyl}amino)pyrimidine-5-carboxylic acid], the IC50 is at most 1 µM.

Regarding `N#Cc1ccc(-c2nc(NCCNc3ccc([N+](=O)[O-])cn3)nc(-c3ccc(F)cc3)c2C(=O)O)cc1` [4-(4-cyanophenyl)-6-(4-fluorophenyl)-2-({2-[(5-nitro(2-pyridyl))amino]ethyl}-amino)pyrimidine-5-carboxylic acid], the IC50 was at most 1 µM. The same measure for `COc1ccc(-c2nc(NCCNc3ccc([N+](=O)[O-])cn3)nc(-c3ccc([N+](=O)[O-])cc3)c2C(=O)O)cc1` [4-(4-methoxyphenyl)-2-({2-[(5-nitro(2-pyridyl))amino]ethyl}-amino)-6-(4-nitrophenyl)pyrimidine-5-carboxylic acid]: at most 10 µM.
